Test results taken from PubChem BioAssay (NCI).
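Protocol summary: plate cells (96-well), add compound at 5 concentrations, incubate 48 h, interpolate endpoints linearly. GI50 is the concentration that inhibits growth by half. Definition used: TGI = concentration required for complete inhibition of growth.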 *1 amine or outer side, *2 acyl side, *3 side chain or, on linkers, in order; H or OH if unused. Where a SMILES comes first, the peptide text is derived from it. Bridges are numbered along the chain shown (N, C = ends). Roman numbers before positions name the chains, in order. X23 = CCCCCCCCCCCCCCC(=O)NC(CCCCN[*:2])C(=O)CN1CCCC1C(=O)[*:1]

Key:
Experiment in all cases: NCI anticancer screen, dose series, 48 h
A498 renal = system: A498 renal
A549 NSCLC = system: A549 NSCLC
BT-549 breast = system: BT-549 breast
CAKI-1 renal = system: CAKI-1 renal
CCRF-CEM leukemia = system: CCRF-CEM leukemia
COLO 205 colon = system: COLO 205 colon
DU-145 prostate = system: DU-145 prostate
EKVX NSCLC = system: EKVX NSCLC
HCC-2998 colon = system: HCC-2998 colon
HCT-116 colon = system: HCT-116 colon
HL-60(TB) leukemia = system: HL-60(TB) leukemia
HOP-62 NSCLC = system: HOP-62 NSCLC
HOP-92 NSCLC = system: HOP-92 NSCLC
HS 578T breast = system: HS 578T breast
HT29 colon = system: HT29 colon
IGROV1 ovarian = system: IGROV1 ovarian
K-562 leukemia = system: K-562 leukemia
KM12 colon = system: KM12 colon
M14 melanoma = system: M14 melanoma
MCF7 breast = system: MCF7 breast
MDA-MB-231 breast = system: MDA-MB-231 breast
MDA-MB-435 = system: MDA-MB-435
MOLT-4 leukemia = system: MOLT-4 leukemia
NCI-H226 lung = system: NCI-H226 lung
NCI-H23 lung = system: NCI-H23 lung
NCI-H460 lung = system: NCI-H460 lung
NCI-H522 lung = system: NCI-H522 lung
NCI/ADR-RES ovarian = system: NCI/ADR-RES ovarian
OVCAR-3 ovarian = system: OVCAR-3 ovarian
OVCAR-4 ovarian = system: OVCAR-4 ovarian
OVCAR-5 ovarian = system: OVCAR-5 ovarian
OVCAR-8 ovarian = system: OVCAR-8 ovarian
RPMI-8226 leukemia = system: RPMI-8226 leukemia
RXF 393 renal = system: RXF 393 renal
SF-268 CNS = system: SF-268 CNS
SF-295 CNS = system: SF-295 CNS
SF-539 CNS = system: SF-539 CNS
SK-MEL-2 melanoma = system: SK-MEL-2 melanoma
SK-MEL-28 melanoma = system: SK-MEL-28 melanoma
SK-MEL-5 melanoma = system: SK-MEL-5 melanoma
SK-OV-3 ovarian = system: SK-OV-3 ovarian
SNB-19 CNS = system: SNB-19 CNS
SNB-75 CNS = system: SNB-75 CNS
SW-620 colon = system: SW-620 colon
T-47D breast = system: T-47D breast
TK-10 renal = system: TK-10 renal
UACC-257 melanoma = system: UACC-257 melanoma
UO-31 renal = system: UO-31 renal

With `CCCCCCCCCCCCCCC(=O)NC(CCCCNC(=O)C1CCCN1C(=O)C(CCCCN)NC(=O)C(CCCCN)NC(=O)C(CCCCN)NC(=O)C(CCCNC(=N)N)NC(=O)C(CCCCN)NC(=O)C(N)C(C)C)C(=O)CN1CCCC1C(=O)NCC(=O)NC(Cc1ccccc1)C(=O)N1CCCC1C(=O)NC(CO)C(=O)NC(Cc1ccc(O)cc1)C(=O)NC(CCCCN)C(=O)NC(CC(C)C)C(=O)NC(CCCNC(=N)N)C(=O)N1CCCC1C(=O)NCC(N)=O` (stereo unspecified) (I: GFPSYKLRPG-NH2 / II: H-VKRKKKP; linker I:N-II:C via X23; configuration not given here) the GI50 (A498 renal) was 40.5 µM, the TGI (A498 renal) was greater than 100 µM and the GI50 (A549 NSCLC) was 19.2 µM. The TGI (A549 NSCLC) was 43.1 µM, the GI50 (BT-549 breast) was 23.4 µM and the TGI (BT-549 breast) was 54.7 µM. It also gave a GI50 (CAKI-1 renal) of 14 µM, a TGI (CAKI-1 renal) of 36.9 µM and a GI50 (CCRF-CEM leukemia) of 16.5 µM. The TGI (CCRF-CEM leukemia) was 35.1 µM, the GI50 (COLO 205 colon) was 2.66 µM and the TGI (COLO 205 colon) was 15.6 µM. For the same compound, the GI50 (DU-145 prostate) was 24.6 µM, the TGI (DU-145 prostate) was 64.2 µM and the GI50 (EKVX NSCLC) was 20.3 µM. It also gave a TGI (EKVX NSCLC) of 58.7 µM, a GI50 (HCC-2998 colon) of 2.34 µM and a TGI (HCC-2998 colon) of 8.59 µM. It also gave a GI50 (HCT-116 colon) of 14.3 µM, a TGI (HCT-116 colon) of 33.1 µM and a GI50 (HL-60(TB) leukemia) of 22.5 µM. The TGI (HL-60(TB) leukemia) was 94.8 µM, the GI50 (HOP-62 NSCLC) was 27.8 µM and the TGI (HOP-62 NSCLC) was 69.5 µM. The GI50 (HOP-92 NSCLC) was 27 µM, the TGI (HOP-92 NSCLC) was 65.1 µM and the GI50 (HS 578T breast) was 41.1 µM. For the same compound, the TGI (HS 578T breast) was greater than 100 µM, the GI50 (HT29 colon) was 24.7 µM and the TGI (HT29 colon) was 77.8 µM. The GI50 (IGROV1 ovarian) was 14.8 µM, the TGI (IGROV1 ovarian) was 52.4 µM and the GI50 (K-562 leukemia) was 9.27 µM. It also gave a TGI (K-562 leukemia) of 44.4 µM, a GI50 (KM12 colon) of 1.89 µM and a TGI (KM12 colon) of 3.85 µM. For the same compound, the GI50 (M14 melanoma) was 22.8 µM, the TGI (M14 melanoma) was 55.6 µM and the GI50 (MCF7 breast) was 15.4 µM. It also gave a TGI (MCF7 breast) of 45.7 µM, a GI50 (MDA-MB-231 breast) of 20.9 µM and a TGI (MDA-MB-231 breast) of 43.7 µM. It also gave a GI50 (MDA-MB-435) of 3.15 µM, a TGI (MDA-MB-435) of 41.6 µM and a GI50 (MOLT-4 leukemia) of 18.7 µM. It also gave a TGI (MOLT-4 leukemia) of 44 µM, a GI50 (NCI-H226 lung) of 23.7 µM and a TGI (NCI-H226 lung) of 49.7 µM. For the same compound, the GI50 (NCI-H23 lung) was 23.8 µM, the TGI (NCI-H23 lung) was 92.8 µM and the GI50 (NCI-H460 lung) was 14.6 µM. For the same compound, the TGI (NCI-H460 lung) was 49.9 µM, the GI50 (NCI-H522 lung) was 21.8 µM and the TGI (NCI-H522 lung) was 66.3 µM. It also gave a GI50 (NCI/ADR-RES ovarian) of 19.6 µM, a TGI (NCI/ADR-RES ovarian) of 52.9 µM and a GI50 (OVCAR-3 ovarian) of 18.7 µM. The TGI (OVCAR-3 ovarian) was 94.6 µM, the GI50 (OVCAR-4 ovarian) was 28.7 µM and the TGI (OVCAR-4 ovarian) was 97.1 µM. For the same compound, the GI50 (OVCAR-5 ovarian) was 29.7 µM, the TGI (OVCAR-5 ovarian) was 74.9 µM and the GI50 (OVCAR-8 ovarian) was 26.3 µM. The TGI (OVCAR-8 ovarian) was 85.8 µM, the GI50 (RPMI-8226 leukemia) was 11 µM and the TGI (RPMI-8226 leukemia) was 30 µM. It also gave a GI50 (RXF 393 renal) of 20.7 µM, a TGI (RXF 393 renal) of 51.1 µM and a GI50 (SF-268 CNS) of 14.6 µM. For the same compound, the TGI (SF-268 CNS) was 40.8 µM, the GI50 (SF-295 CNS) was 18.1 µM and the TGI (SF-295 CNS) was 59.3 µM. It also gave a GI50 (SF-539 CNS) of 27.7 µM, a TGI (SF-539 CNS) of 75.1 µM and a GI50 (SK-MEL-2 melanoma) of 51.7 µM. For the same compound, the TGI (SK-MEL-2 melanoma) was greater than 100 µM, the GI50 (SK-MEL-28 melanoma) was 11.3 µM and the TGI (SK-MEL-28 melanoma) was 98.6 µM. The GI50 (SK-MEL-5 melanoma) was 8.01 µM, the TGI (SK-MEL-5 melanoma) was greater than 100 µM and the GI50 (SK-OV-3 ovarian) was 15.9 µM. For the same compound, the TGI (SK-OV-3 ovarian) was 44.3 µM, the GI50 (SNB-19 CNS) was 31.4 µM and the TGI (SNB-19 CNS) was 76.6 µM. The GI50 (SNB-75 CNS) was 31.5 µM, the TGI (SNB-75 CNS) was 76.7 µM and the GI50 (SW-620 colon) was 30 µM. The TGI (SW-620 colon) was greater than 100 µM, the GI50 (T-47D breast) was 3.17 µM and the TGI (T-47D breast) was 13.9 µM. For the same compound, the GI50 (TK-10 renal) was 0.704 µM, the TGI (TK-10 renal) was 13.7 µM and the GI50 (UACC-257 melanoma) was 14 µM. The TGI (UACC-257 melanoma) was 53.8 µM, the GI50 (UO-31 renal) was 24.7 µM and the TGI (UO-31 renal) was 77.1 µM.
